Key:
Format in all cases: in vivo
Wild buckwheat [1] = experiment: Post-emergence herbicide test; conditions: Fallopia convolvulus, 11.21 kg/ha, read-out: % plant inhibition (Wibw)
Excerpt: (§1) Topsoil is placed in aluminum pans having holes in the bottom and compacted to a depth of 0.95 to 1.27 cm from the top of the pan. A predetermined number of seeds of each of several dicotyledonous and monocotyledonous annual plant species and/or vegetative propagules for the perennial plant species are placed on the soil and pressed into the soil surface. The seeds and/or vegetative propagules are covered with soil and leveled. The pans are then placed on a bench in the greenhouse and watered from below as needed. After the plants reach the desired age (two to three weeks), each pan, is removed individually to a spraying chamber and sprayed by means of an atomizer, operating at a spray pressure of 170.3 kPa (10 psig) at the application rates noted. In the spray solution is an amount of an emulsifying agent mixture to give a spray solution or suspension which contains about 0.4% by volume of the emulsifier. The spray solution or suspension contains a sufficient amount of the candidate chemical in order to give application rates of the active ingredient corresponding to those shown in Tables 8 and 8A, while applying a total amount of solution or suspension equivalent to 1870 L/Ha (200 gallons/acre). The pans were returned to the greenhouse and watered as before and the injury to the plants as compared to the control is observed at approximately 10-14 days (usually 11 days) and in some instances observed again at 24-28 days (usually 25 days) after spraying. The post-emergent herbicidal activity shown in these tables is the percent inhibition of each plant species.

Seedling johnsongrass [2] = experiment: Post-emergence herbicide test; conditions: Sorghum halepense, 11.21 kg/ha, read-out: % plant inhibition (Sejg)
Excerpt: as §1

Barnyardgrass [3] = experiment: Post-emergence herbicide test; conditions: Echinochloa crus-galli, 11.21 kg/ha, read-out: % plant inhibition (Bygr)
Excerpt: as §1

Velvetleaf [4] = experiment: Post-emergence herbicide test; conditions: Abutilon theophrasti, 11.21 kg/ha, read-out: % plant inhibition (Vele)
Excerpt: as §1

Cocklebur [5] = experiment: Post-emergence herbicide test; conditions: Xanthium strumarium, 11.21 kg/ha, read-out: % plant inhibition (Cobu)
Excerpt: as §1

Downy Brome [6] = experiment: Post-emergence herbicide test; conditions: Bromus tectorum, 11.21 kg/ha, read-out: % plant inhibition (Dobr)
Excerpt: as §1

Morningglory [7] = experiment: Post-emergence herbicide test; conditions: Ipomoea, 11.21 kg/ha, read-out: % plant inhibition (Mogl)
Excerpt: as §1

Annual bluegrass [8] = experiment: Post-emergence herbicide test; conditions: 11.21 kg/ha, read-out: % plant inhibition (Anbg)
Excerpt: as §1

Indian Mustard [9] = experiment: Post-emergence herbicide test; conditions: Brassica juncea, 11.21 kg/ha, read-out: % plant inhibition (Inmu)
Excerpt: as §1

Yellow nutsedge [10] = experiment: Post-emergence herbicide test; conditions: Cyperus, 11.21 kg/ha, read-out: % plant inhibition (Yens)
Excerpt: as §1

Wild buckwheat [11] = experiment: Pre-emergence herbicide test; conditions: Fallopia convolvulus, 11.21 kg/ha, read-out: % plant inhibition (Wibw)
Description: (§2) The tests for pre-emergence herbicide activity are conducted as follows:
(§3) Topsoil is placed in an aluminum pan and compacted to a depth of 0.95 to 1.27 cm from the top of the pan. On the top of the soil is placed a predetermined number of seeds of each of several monocotyledonous and dicotyledonous annual plant species and/or vegetative propagules of various perennial plant species. A known amount of the active ingredient dissolved or suspended in an organic solvent, e.g., acetone, or water as carrier is then applied directly to the seed bed, which is then covered with a layer of untreated topsoil to level fill the pan. After treatment, the pans are moved to a greenhouse bench where they are watered from below as needed to give adequate moisture for germination and growth.
(§4) Approximately 10-14 days (usually 11 days) after seeding and treating, the pans are observed and the results (% inhibition) are recorded.
(§5) Tables 7 and 7A below summarize the results of the pre-emergence herbicidal activity tests of compounds of this invention in weeds. The herbicidal rating shown in these tables is the percent inhibition of each plant species. The plant species usually regarded as weeds which are utilized in one set of tests, the data for which are shown in the tables, are identified by letter headings above the columns in accordance with the following legend: […]

Seedling johnsongrass [12] = experiment: Pre-emergence herbicide test; conditions: Sorghum halepense, 11.21 kg/ha, read-out: % plant inhibition (Sejg)
Description: as §2, §3, §4, §5

Barnyardgrass [13] = experiment: Pre-emergence herbicide test; conditions: Echinochloa crus-galli, 11.21 kg/ha, read-out: % plant inhibition (Bygr)
Description: as §2, §3, §4, §5

Velvetleaf [14] = experiment: Pre-emergence herbicide test; conditions: Abutilon theophrasti, 11.21 kg/ha, read-out: % plant inhibition (Vele)
Description: as §2, §3, §4, §5

Cocklebur [15] = experiment: Pre-emergence herbicide test; conditions: Xanthium strumarium, 11.21 kg/ha, read-out: % plant inhibition (Cobu)
Description: as §2, §3, §4, §5

Downy Brome [16] = experiment: Pre-emergence herbicide test; conditions: Bromus tectorum, 11.21 kg/ha, read-out: % plant inhibition (Dobr)
Description: as §2, §3, §4, §5

Morningglory [17] = experiment: Pre-emergence herbicide test; conditions: Ipomoea, 11.21 kg/ha, read-out: % plant inhibition (Mogl)
Description: as §2, §3, §4, §5

Annual bluegrass [18] = experiment: Pre-emergence herbicide test; conditions: 11.21 kg/ha, read-out: % plant inhibition (Anbg)
Description: as §2, §3, §4, §5

Indian Mustard [19] = experiment: Pre-emergence herbicide test; conditions: Brassica juncea, 11.21 kg/ha, read-out: % plant inhibition (Inmu)
Description: as §2, §3, §4, §5

Yellow nutsedge [20] = experiment: Pre-emergence herbicide test; conditions: Cyperus, 11.21 kg/ha, read-out: % plant inhibition (Yens)
Description: as §2, §3, §4, §5

For `Cn1nc(-c2cc(N(S(C)(=O)=O)S(C)(=O)=O)c(Cl)cc2Cl)c(Cl)c1C(F)(F)F` [Compound 87], the inhibition at 11210 g/ha (Wild buckwheat [1]) was 40%, the inhibition at 11210 g/ha (Seedling johnsongrass [2]) was 40% and the inhibition at 11210 g/ha (Barnyardgrass [3]) was 20%. It also gave an inhibition at 11210 g/ha (Velvetleaf [4]) of 100%, an inhibition at 11210 g/ha (Cocklebur [5]) of 50% and an inhibition at 11210 g/ha (Downy Brome [6]) of 0%. The inhibition at 11210 g/ha (Morningglory [7]) was 70%, the inhibition at 11210 g/ha (Annual bluegrass [8]) was 10% and the inhibition at 11210 g/ha (Indian Mustard [9]) was 30%. For the same compound, the inhibition at 11210 g/ha (Yellow nutsedge [10]) was 10%, the inhibition at 11210 g/ha (Wild buckwheat [11]) was 90% and the inhibition at 11210 g/ha (Seedling johnsongrass [12]) was 30%. For the same compound, the inhibition at 11210 g/ha (Barnyardgrass [13]) was 40%, the inhibition at 11210 g/ha (Velvetleaf [14]) was 90% and the inhibition at 11210 g/ha (Cocklebur [15]) was 10%. For the same compound, the inhibition at 11210 g/ha (Downy Brome [16]) was 20%, the inhibition at 11210 g/ha (Morningglory [17]) was 70% and the inhibition at 11210 g/ha (Annual bluegrass [18]) was 10%. It also gave an inhibition at 11210 g/ha (Indian Mustard [19]) of 70% and an inhibition at 11210 g/ha (Yellow nutsedge [20]) of 10%.

`Cn1nc(C(F)(F)F)c(Br)c1-c1cc(F)ccc1F` [Compound 68] was tested, and the inhibition at 11210 g/ha (Wild buckwheat [1]) was 0%, the inhibition at 11210 g/ha (Seedling johnsongrass [2]) was 0% and the inhibition at 11210 g/ha (Barnyardgrass [3]) was 0%. The inhibition at 11210 g/ha (Velvetleaf [4]) was 0%, the inhibition at 11210 g/ha (Cocklebur [5]) was 0% and the inhibition at 11210 g/ha (Downy Brome [6]) was 0%. The inhibition at 11210 g/ha (Morningglory [7]) was 0%, the inhibition at 11210 g/ha (Annual bluegrass [8]) was 0% and the inhibition at 11210 g/ha (Indian Mustard [9]) was 0%. The inhibition at 11210 g/ha (Yellow nutsedge [10]) was 0%, the inhibition at 11210 g/ha (Seedling johnsongrass [12]) was 10% and the inhibition at 11210 g/ha (Barnyardgrass [13]) was 10%. It also gave an inhibition at 11210 g/ha (Velvetleaf [14]) of 40%, an inhibition at 11210 g/ha (Cocklebur [15]) of 0% and an inhibition at 11210 g/ha (Downy Brome [16]) of 0%. For the same compound, the inhibition at 11210 g/ha (Morningglory [17]) was 30%, the inhibition at 11210 g/ha (Annual bluegrass [18]) was 0% and the inhibition at 11210 g/ha (Indian Mustard [19]) was 0%. For the same compound, the inhibition at 11210 g/ha (Yellow nutsedge [20]) was 30%.

Compound `Cn1nc(-c2cc(NC(=O)C3(Br)CC3)c(Cl)cc2F)c(Cl)c1C(F)(F)F` [Compound 500, cyclopropanecarboxamide,-1-bromo-N-[2-chloro-5-[4-chloro-1-methyl-5-(trifluoromethyl)-1H-pyrazol-3-yl]-4-fluorophenyl]-] has an inhibition at 11210 g/ha (Seedling johnsongrass [2]) of 90%, an inhibition at 11210 g/ha (Annual bluegrass [8]) of 50% and an inhibition at 11210 g/ha (Yellow nutsedge [10]) of 0%. It also gave an inhibition at 11210 g/ha (Wild buckwheat [11]) of 90%, an inhibition at 11210 g/ha (Seedling johnsongrass [12]) of 70% and an inhibition at 11210 g/ha (Barnyardgrass [13]) of 30%. For the same compound, the inhibition at 11210 g/ha (Velvetleaf [14]) was 70%, the inhibition at 11210 g/ha (Cocklebur [15]) was 40% and the inhibition at 11210 g/ha (Downy Brome [16]) was 80%. For the same compound, the inhibition at 11210 g/ha (Morningglory [17]) was 60%, the inhibition at 11210 g/ha (Annual bluegrass [18]) was 10% and the inhibition at 11210 g/ha (Indian Mustard [19]) was 30%. It also gave an inhibition at 11210 g/ha (Yellow nutsedge [20]) of 0%.

For `Cn1nc(-c2cc(F)c(Cl)cc2Cl)c(Cl)c1C(F)(F)F` [Compound 84], the inhibition at 11210 g/ha (Seedling johnsongrass [2]) was 40%, the inhibition at 11210 g/ha (Barnyardgrass [3]) was 10% and the inhibition at 11210 g/ha (Velvetleaf [4]) was 100%. It also gave an inhibition at 11210 g/ha (Cocklebur [5]) of 20%, an inhibition at 11210 g/ha (Downy Brome [6]) of 0% and an inhibition at 11210 g/ha (Morningglory [7]) of 50%. For the same compound, the inhibition at 11210 g/ha (Annual bluegrass [8]) was 10%, the inhibition at 11210 g/ha (Indian Mustard [9]) was 0% and the inhibition at 11210 g/ha (Yellow nutsedge [10]) was 10%. The inhibition at 11210 g/ha (Wild buckwheat [11]) was 100%, the inhibition at 11210 g/ha (Seedling johnsongrass [12]) was 100% and the inhibition at 11210 g/ha (Barnyardgrass [13]) was 100%. For the same compound, the inhibition at 11210 g/ha (Velvetleaf [14]) was 100%, the inhibition at 11210 g/ha (Cocklebur [15]) was 80% and the inhibition at 11210 g/ha (Downy Brome [16]) was 100%. For the same compound, the inhibition at 11210 g/ha (Morningglory [17]) was 90%, the inhibition at 11210 g/ha (Annual bluegrass [18]) was 100% and the inhibition at 11210 g/ha (Indian Mustard [19]) was 100%. It also gave an inhibition at 11210 g/ha (Yellow nutsedge [20]) of 30%.

From patent US5530126A, “Process for the preparation of substituted 6-(pyrazol-3yl)-1,4-benzoxazin-3-ones” (Monsanto Company, priority 1994, dated 1996)
